In PMC11820944, “Safirinium Fluorescent “Click” Molecular Probes: Synthesis, CuAAC Reactions, and Microscopic Imaging” (Molecules, 2025):

Key:
[1] = test system: CHO-K1 cells; test: Cellular uptake and distribution by fluorescence (confocal) microscopy; type: cell-based, Chinese hamster; details: 10 µM, 30 min
Method: Figure 6 Cellular uptake and intracellular distribution of selected probes (1 and 6) and triazole derivatives (11, 12, 13, and 15) in Chinese hamster ovary cells. CHO-K1 cells were cultured overnight and then incubated with the tested compounds (10 μM). Representative images (100× magnification) illustrating intracellular distribution of the compounds in CHO-K1 cells were captured after 30 min of incubation with the tested compounds. Scale bar = 20 μm.
CHO-K1 cells were seeded at a density of 2 × 10^5/well in 12-well plates containing cover slips at the bottom and cells were incubated for 24 h. Then, cells were fixed in 3.7% formaldehyde in PBS for 10 min in 37 °C, washed twice with PBS, and stained with compound solution (10 µM) for 30 min. After this time, the cells were rinsed 2 times with Gibco FluoroBrite DMEM and a coverslip was placed on a stock carrier with drops of culture medium. Finally, slides were mounted in ProLong™ Glass Antifade Mountant and visualized under an A1 confocal system built on a Nikon Eclipse Ti-E microscope (Japan) equipped with 405 and 561 nm diode lasers and a Plan Apo 100×/1.4 Oil DIC objective.

[2] = Chemical stability of aqueous solution in daylight, RP-HPLC with fluorescence detection; type: physicochemical
From the text: To assess the chemical stability of Safirinium-based alkyne probes for RP-HPLC analysis, we developed a preliminary RP-HPLC method with fluorescent detection for the alkyne probe 1. This was accomplished using an LC-PCN column and a simple isocratic elution approach. Subsequently, we prepared a 10^−6 M aqueous solution of probe 1 and kept it exposed to natural daylight on a laboratory bench for 7 days. […] Assuming pseudo-first-order kinetics, it can be calculated that probe 1 can remain stable (95%) under such conditions for 12 h.
RP-HPLC analyses with fluorescence detection (Method B) were performed on a LaChrom Elite HPLC system, (VWR-Hitachi, Japan), equipped with a L-2130 pump, a L-2485 FL detector, a L-2350 column oven, and an L-2200 autosampler, the system was controlled with EZChrom Elite version 3.2, Agilent software. Separations were performed on a SUPELCOSIL LC-PCN 250 × 4.6 mm column with 5 µm grain size, under 1 mL/min isocratic elution with 50:50 v/v water: acetonitrile mixture, acidified with 0.1% formic acid. Injection volume was 20 µL; 10^−6 mol/dm^3 solution of probe 1 in water was prepared in a clear HPLC sample vial and analyzed directly after preparation and after 7 days (168 h) of standing on a lab bench, exposed to natural daylight at room temperature. Example chromatograms are presented in the electronic supporting information.

[3] = Fluorescence emission spectra and quantum yields (comparative method); type: physicochemical; details: for λ Emission: 1·10^-6 mol/dm^3, 365 nm excitation; for Fluorescence Quantum Yield: against A1 standard
Method: Fluorescence spectra were recorded using a Hitachi F-70000 spectrofluorimeter (P VWR-Hitachi, Japan), for 1 × 10^−6 mol/dm^3 solutions of the compounds in water and acetonitrile, at 365 nm excitation wavelength, using 5 nm excitation and 2.5 nm emission slits, and 700 V photomultiplier voltage. The spectra (Figures S2 and S4) were recorded in 400–700 nm range. The 1 × 10^−6 mol/dm^3 solutions were prepared by 100-fold dilution of the solutions used for absorption measurement.
Quantum yields of fluorescence (Table 1) were determined using the comparative method, from Formula (1), using the recorded absorption and emission spectra and diethyl Safirinium P zwitterion A1 (ϕ = 0.755 in water) as standard.(1) Φ=ΦstdFAstdnstd2/FstdAn^2 where ϕ, ϕstd—quantum yields; F, Fstd—integrals under fluorescence emission curves; A, Astd—absorbance at excitation wavelength, and n, nstd—refractive indices, for the compound and standard (std subscript), respectively.

[4] = in vitro; type: cell-based; details: Chinese hamster
From the text: (§1) CHO-K1 cell line was derived as a subclone from the parental CHO cell line, which was initiated from a biopsy of an ovary of an adult, female Chinese hamster commercially available in ATCC (CCL-61™). NIH-3T3 cell line was obtained from DSMZ, the German Collection of Microorganisms and Cell Cultures. CHO-K1 and NIH-3T3 cells were cultivated in F-12K Medium (ATCC 30-2004) and Dulbecco’s MEM with Glutamax™ 1 Medium (Gibco, Paisley, UK), respectively. Culture media were supplemented with fetal bovine serum (FBS, Gibco, Thermo Fisher Scientific, Waltham, MA, USA) to a final concentration of 10% and antibiotic to final concentration of 1% (pent/strept, Gibco, Thermo Fisher Scientific, Waltham, MA, USA). Cells were cultured in standard culture conditions (5% CO2, 37 °C, 95% humidity).
Cell viability was determined by the 3-(4,5-dimethylthiazol-2-yl)-2,5-diphenyltetrazolium bromide (MTT, Sigma Aldrich, Burlington, MA, USA) assay. […] The absorbance was measured at 570 nm (SpectraMax® iD3, Molecular Devices, San Jose, CA, USA) and the experiment was performed two times in duplicates. Cells viability was expressed as a percentage of viability (in comparison to non-treated cells normalized to 100%). Data were analyzed using GraphPad Prism Software (GraphPad Software, Inc., San Diego, CA, USA, version 10.3.1).

[5] = MTT cell viability assay, NIH-3T3 cells; type: cell-based; details: mouse, 24 h incubation, read-out: IC50 (cytotoxicity, cell viability)
From the text: as §1
Cell viability was determined by the 3-(4,5-dimethylthiazol-2-yl)-2,5-diphenyltetrazolium bromide (MTT, Sigma Aldrich, Burlington, MA, USA) assay. Cells were seeded into 96-well plates at density of 2 × 10^4 cell/well and cultured in the presence of compounds (1–4, 6–9, 11–13, and 15) at concentration range 1.56–100 µM for 24 h. The MTT reagent (final concentration 0.5 mg/mL) was added to each well for 3 h, and then formazan crystals were dissolved in DMSO. The absorbance was measured at 570 nm (SpectraMax® iD3, Molecular Devices, San Jose, CA, USA) and the experiment was performed two times in duplicates. Cells viability was expressed as a percentage of viability (in comparison to non-treated cells normalized to 100%). Data were analyzed using GraphPad Prism Software (GraphPad Software, Inc., San Diego, CA, USA, version 10.3.1).

[6] = design: method as in PMID 23893376; details: in water; cited from earlier work

Structure (SMILES)	Cellular uptake and intracellular distribution [1]	λ Emission ([3]; Acetonitrile)	Fluorescence Quantum Yield ([3]; Acetonitrile)	λ Emission ([3]; H2O)	Fluorescence Quantum Yield ([3]; H2O)	IC50 at 24 h [5]	also measured
C#CCNC(=O)C1=C(C)C=C(C)N2C[N+](CC)(CC)N=C12.[Br-] [Compound 1, 2,2-Diethyl-5,7-dimethyl-8-[(prop-2-yn-1-yl)carbamoyl]-2H,3H-[1,2,4]triazolo [4,3-a]pyridin-2-ium bromide]	capable of entering the cytoplasm of the cells; however, they did not penetrate the nuclei	443 nm	0.86	446 nm	1.00		half-life ([2]; 10^-6 M aqueous solution exposed to natural daylight): ~168 h; RP-HPLC peak area decrease ([2]; 10^-6 M aqueous solution, natural daylight, room temperature, 7 days): 50%; Time of remaining stable (95%) ([2]; aqueous solution exposed to daylight, assuming pseudo-first-order kinetics): 12 h
CCCCCCCC[N+]1(CCCCCCCC)CN2C(=N1)C(C(=O)NCCCCCN=[N+]=[N-])=Cc1ccccc12 [Compound 9, 4-((5-Azidopentyl)carbamoyl)-2,2-dioctyl-1,2-dihydro-[1,2,4]triazolo[4,3-a]quinolin-2-ium bromide]						13 µM	IC50 at 24 h [4]: 11 µM
CC[N+]1(CC)CN2C(=N1)C(C(=O)NCc1cn(C3O[C@H](COC(C)=O)[C@@H](OC(C)=O)[C@H](OC(C)=O)[C@H]3OC(C)=O)nn1)=Cc1ccccc12.[Br-] (stereo partly drawn) [Compound 12, 2,2-Diethyl-4-(((1-((3R,4S,5R,6R)-3,4,5-triacetoxy-6-(acetoxymethyl)tetrahydro-2H-pyran-2-yl)-1H-1,2,3-triazol-4-yl)methyl)carbamoyl)-1,2-dihydro-[1,2,4]triazolo[4,3-a]quinolin-2-ium bromide]	capable of entering the cytoplasm of the cells; however, they did not penetrate the nuclei						
CC[N+]1(CC)CN2C(C)=CC(C)=C(C(=O)[O-])C2=N1 [Compound A1]							Fluorescence quantum yield (ϕ) of standard [6]: 0.755
CCCCCCCC[N+]1(CCCCCCCC)CN2C(C)=CC(C)=C(C(=O)NCCCCCN=[N+]=[N-])C2=N1 [Compound 7, 8-((5-Azidopentyl)carbamoyl)-5,7-dimethyl-2,2-dioctyl-2,3-dihydro-[1,2,4]triazolo[4,3-a]pyridin-2-ium bromide]						26.4 µM	
C#CCNC(=O)C1=Cc2ccccc2N2C[N+](CC)(CC)N=C12.[Br-] [Compound 3, 2,2-Diethyl-4-(prop-2-yn-1-ylcarbamoyl)-1,2-dihydro-[1,2,4]triazolo[4,3-a]quinolin-2-ium bromide]		455 nm	0.71	462 nm	0.62		
CC[N+]1(CC)CN2C(=N1)C(C(=O)NCc1cn(C3CC(n4cc(C)c(=O)[nH]c4=O)OC3CO)nn1)=Cc1ccccc12 (stereo not shown) [Compound 13, 4-(((1-((2-(hydroxymethyl)-5-(5-methyl-2,4-dioxo-1,2,3,4-tetrahydropyrimidin-1-yl)oxolan-3-yl)-1H-1,2,3-triazol-4-yl)methyl)carbamoyl)-2,2-diethyl-1,2-dihydro-[1,2,4]triazolo[4,3-a]quinolin-2-ium bromide]	capable of entering the cytoplasm of the cells; however, they did not penetrate the nuclei	452 nm	0.45	462 nm	0.59		
CC[N+]1(CC)CN2C(=N1)C(C(=O)NCCCCCn1cc(CO)nn1)=Cc1ccccc12.[Br-] [Compound 15, 2,2-Diethyl-4-({5-[4-(hydroxymethyl)-1H-1,2,3-triazol-1-yl]pentyl}carbamoyl)-1H,2H-[1,2,4]triazolo[4,3-a]quinolin-2-ium bromide]	capable of entering the cytoplasm of the cells; however, they did not penetrate the nuclei	454 nm	0.53	459 nm	0.55		
C#CCNC(=O)C1=C(C)C=C(C)N2C[N+](CCCCCCCC)(CCCCCCCC)N=C12 [Compound 2, 5,7-Dimethyl-2,2-dioctyl-8-(prop-2-yn-1-ylcarbamoyl)-2,3-dihydro-[1,2,4]triazolo[4,3-a]pyridin-2-ium bromide]						17.5 µM	
CC[N+]1(CC)CN2C(=N1)C(C(=O)NCCCCCN=[N+]=[N-])=Cc1ccccc12.[Br-] [Compound 8, 4-((5-Azidopentyl)carbamoyl)-2,2-diethyl-1,2-dihydro-[1,2,4]triazolo[4,3-a]quinolin-2-ium bromide]		452 nm	0.68	459 nm	0.60		
C#CCNC(=O)C1=Cc2ccccc2N2C[N+](CCCCCCCC)(CCCCCCCC)N=C12 [Compound 4, 2,2-Dioctyl-4-(prop-2-yn-1-ylcarbamoyl)-1,2-dihydro-[1,2,4]triazolo[4,3-a]quinolin-2-ium bromide]						8.7 µM	IC50 at 24 h [4]: 17.3 µM
CCCCCCCCCCCCCCn1cc(CNC(=O)C2=C(C)C=C(C)N3C[N+](CC)(CC)N=C23)nn1.[Br-] [Compound 11, 2,2-Diethyl-5,7-dimethyl-8-(((1-tetradecyl-1H-1,2,3-triazol-4-yl)methyl)carbamoyl)-2,3-dihydro-[1,2,4]triazolo[4,3-a]pyridin-2-ium bromide]	capable of entering the cytoplasm of the cells; however, they did not penetrate the nuclei	443 nm	0.86	446 nm	0.28		
CC[N+]1(CC)CN2C(C)=CC(C)=C(C(=O)NCCCCCN=[N+]=[N-])C2=N1.[Br-] [Compound 6, 8-((5-Azidopentyl)carbamoyl)-2,2-diethyl-5,7-dimethyl-2,3-dihydro-[1,2,4]triazolo[4,3-a]pyridin-2-ium bromide]	capable of entering the cytoplasm of the cells; however, they did not penetrate the nuclei						
